Data set [1] in a line: Two-phase repeated dose toxicity study in cynomolgus monkeys, i.v. BrHPP. The class given is in vivo. The protocol: The objective of the first phase of this non GLP study was to determine BrHPP Maximum Tolerated Dose (MTD) in a group of two cynomolgus monkeys (one male, one female) by escalating doses. The second objective of this study was to characterize the toxicity of daily i.v. administration of Phosphostim for two weeks in two cynomolgus monkeys (one male, one female) at the MTD determined during the first phase of the study. The animals were treated at increasing dose-levels every 3 or 4 days (phase 1) and then at the estimated Maximum Tolerated Dose (MTD) daily for 2 weeks (phase 2).
A total of four cynomolgus monkeys (two males and two females) were divided into 2 groups and treated with BrHPP, by intravenous administration over a 1-hour infusion period as follows:
Group 1 (one male and one female) were administered BrHPP and/or Phosphostim (BrHPP, 200 mg) i.v. at increasing dose-levels (160, 400, 600, 900 and 1200 mg/kg) every 3 or 4 days. Anionic form BrHPP equilvalent to these doses are respectively: 96, 240, 360, 540 and 720 mg/kg. BrHPP was given as a solution after reconstitution in water for injection finally diluted in Ringer lactate under a dose volume of 4, 10 or 15 mL/kg.
Group 2 (one male and one female) were administered BrHPP i.v. daily at 900 mg/kg/day (540 mg/kg/day in anionic form BrHPP equivalent) for 2 weeks.
The animals were checked daily for mortality and clinical signs. Body weight was recorded pre-study and on the day of each administration in phase 1 or twice weekly throughout phase 2, and including on the day of necropsy for phase 2. Food consumption was estimated daily, starting at least 7 days pre-phase. Hematological, blood biochemical and/or peripheral blood lymphocyte subset analysis investigations were performed pre-study, on the day of each administration in phase 1, on day 7 in phase 2 and at the end of both phases. Electrocardiographic and blood pressure recordings were performed pre-study, on the day of each administration in phase 1 and on day 1 and at the end of treatment in phase 2. Blood, for determination of plasma levels of the test item, was sampled on days 1 and 14 in phase 2. On completion of each phase, animals were submitted to a complete macroscopic post-mortem examination and specified tissues preserved. In phase 2, selected body organs were weighed and microscopic examination of selected tissues was performed for all animals.

The test system of a further data set is γδ T cell. In words: In vitro TNFα release assay, γδ T cell amplification from human PBMCs (in the presence of rhIL2). The class given is cell-based. As to conditions: TNFα release assay; human PBMCs, rhIL2. The protocol: The in vitro biological activity of γδ T cell amplification from human PBMCs (in the presence of rhIL2) was assessed using a TNFα release assay.
Cytokine secretion and cytolytic activity can be assessed using any appropriate in vitro assay, or those provided in the examples herein. For example, cytokine secretion can be determined according to the methods described in Espinosa et al. (J. Biol. Chem., 2001, Vol. 276, Issue 21, 18337-18344), describing measurement of TNF-α release in a bioassay using TNF-α-sensitive cells. Briefly, 10^4 γδT cells/well were incubated with stimulus plus 25 units of IL2/well in 100 μl of culture medium during 24 h at 37° C. Then, 50 μl of supernatant were added to 50 μl of WEHI cells plated at 3×10^4 cells/well in culture medium plus actinomycin D (2 μg/ml) and LiCl (40 mM) and incubated for 20 h at 37° C. Viability of the TNF-α-sensitive cells and measured with a 3-(4,5-dimethylthiazol-2-yl)-2,5-diphenyltetrazolium bromide assay. 50 μl of 3-(4,5-dimethylthiazol-2-yl)-2,5-diphenyltetrazolium bromide (Sigma; 2.5 mg/ml in phosphate-buffered saline) per well were added, and after 4 h of incubation at 37° C., 50 μl of solubilization buffer (20% SDS, 66% dimethyl formamide, pH 4.7) were added, and absorbance (570 nm) was measured. Levels of TNF-α release were then calculated from a standard curve obtained using purified human rTNF-α (PeproTech, Inc., Rocky Hill, N.J.). Interferon-γ released by activated T cells was measured by a sandwich enzyme-linked immunosorbent assay. 5×10^4 γδT cells/well were incubated with stimulus plus 25 units of IL2/well in 100 μl of culture medium during 24 h at 37° C. Then, 50 μl of supernatant were harvested for enzyme-linked immunosorbent assay using mouse monoclonal antibodies (BIOSOURCE, Camarillo, Calif.). […]
BrHPP and HDMAPP bioactivity were compared using in vitro and in vivo assays. The in vitro biological activity of γδ T cell amplification from human PBMCs (in the presence of rhIL2) was assessed using a TNFα release assay.

On to “3-(bromomethyl)-3-butanol-1-yl-diphosphate [BrHPP]”, for which the macroscopic post-mortem examination entry in data set [1] (Phase 1 or Phase 2) is recorded as “No relevant findings”. Moreover, the lymphocyte count result in data set [1] (Phase 2, 900 mg/kg/day 2 weeks) is “increased lymphocyte count was noted in both animals”. Further, the clinical signs entry in data set [1] (both treatment phases) is “no relevant clinical signs were noted”. Further, in data set [1] (either phase), the blood pressure entry is “did not affect blood pressure”, the body weight evolution entry is listed as “had no effect on the body weight evolution” and the food consumption result is given as “unaffected”. Moreover, the “hematological or blood chemistry changes” value in data set [1] (phase 1, 160-1200 mg/kg) is listed as “No treatment related hematological or blood chemistry changes”. The mortality result in data set [1] (phase 1: 160-1200 mg/kg every 3 or 4 days, phase 2: 900 mg/kg/day 2 weeks) is reported as “No unscheduled death occurred”. Moreover, in data set [1] (phase 2, female), the absolute thymus weight result is reported as “slightly lower absolute thymus weight”; the “microscopic findings, female” value was “Lymphoid depletion was seen in the thymus and mesenteric lymph node”. In addition, in data set [1] (phase 2, male), the “microscopic findings, male” value is given as “increase of follicular germinal center in the mesenteric lymph node”. For the same substance, in the data set with γδ T cell, the EC50 was approximately 30 nM.

(Values after US20100254940A1, “Compositions and Methods for Regulating an Immune Response in a Subject” (INNATE PHARMA, S.A., priority 2002, published 2010).)
